Source: patent US20110002855A1 (NEUROGEN CORPORATION, priority 2007, published 2011)

target: T1, chimeric human H3 receptor (Homo sapiens, UniProt Q9Y5N1); assay: Chimeric human H3 receptor screening GTP binding assay at 4 μM (Example 8); assay type: biochemical; settings: test compound 4 μM, 1 μM histamine, P2 membranes of Sf9 cells; read-out: % (percent inhibition of agonist-induced GTP-gammaS binding to H3)
T1 construct: made in house; host or cells: Sf9 insect cells (baculovirus); P2 membrane preparation
T1 sequence (Q9Y5N1 with tags, fused parts or gaps): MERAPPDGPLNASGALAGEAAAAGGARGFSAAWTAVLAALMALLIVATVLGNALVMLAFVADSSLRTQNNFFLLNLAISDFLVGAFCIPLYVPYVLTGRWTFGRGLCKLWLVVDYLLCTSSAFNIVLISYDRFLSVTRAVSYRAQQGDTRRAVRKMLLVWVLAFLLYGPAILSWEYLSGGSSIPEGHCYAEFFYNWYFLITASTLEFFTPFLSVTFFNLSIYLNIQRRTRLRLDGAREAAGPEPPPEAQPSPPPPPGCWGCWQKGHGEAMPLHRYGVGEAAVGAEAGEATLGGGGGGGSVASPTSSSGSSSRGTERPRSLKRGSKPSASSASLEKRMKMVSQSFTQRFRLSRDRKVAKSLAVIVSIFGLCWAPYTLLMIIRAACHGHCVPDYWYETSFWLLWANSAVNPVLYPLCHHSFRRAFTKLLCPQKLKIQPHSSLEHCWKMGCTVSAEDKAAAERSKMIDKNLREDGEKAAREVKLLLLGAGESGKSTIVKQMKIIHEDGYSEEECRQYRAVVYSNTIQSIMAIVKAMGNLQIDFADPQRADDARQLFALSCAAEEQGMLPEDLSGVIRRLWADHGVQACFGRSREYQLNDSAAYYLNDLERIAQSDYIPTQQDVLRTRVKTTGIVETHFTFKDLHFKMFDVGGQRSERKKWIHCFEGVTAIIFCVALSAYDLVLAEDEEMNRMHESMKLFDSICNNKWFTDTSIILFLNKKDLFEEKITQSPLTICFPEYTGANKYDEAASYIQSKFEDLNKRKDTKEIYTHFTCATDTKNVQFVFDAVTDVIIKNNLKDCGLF
Method: This Example illustrates a representative screening assay for evaluating inhibition of histamine-stimulated GTP-gamma^35S binding. Such GTP binding activity can be used to identify H3 antagonists and inverse agonists. A compound analyzed in this assay is referred to herein as a “test compound,” and the initial identification of antagonists and inverse agonists is performed using a test compound concentration of 4 μM.
Four independent baculoviral stocks (one directing the expression of the chimeric human H3 receptor and three directing the expression of each of the three subunits of a heterotrimeric G-protein) are used to infect a culture of Sf9 cells as described above. P2 membranes are prepared as described above, and are resuspended by Dounce homogenization (tight pestle) in GTP binding assay buffer (50 mM Tris pH 7.4, 120 mM NaCl, 5 mM MgCl2, 2 mM EGTA, 1 mg/ml BSA, 0.2 mg/ml bacitracin, 0.02 mg/ml aprotinin, 0.01 mg/ml saponin, 10 μM GDP) and added to assay tubes at a concentration of 35 μg protein/reaction tube. Non-radiolabeled test compounds are added to separate reactions at a concentration of 4 μM along with 1 μM histamine (agonist). Reactions are initiated by the addition of 125 pM GTP-gamma^35S with a final assay volume of 0.20 ml.
After a 60-min incubation at room temperature, reactions are terminated by vacuum filtration over GF/C filters (pre-soaked in 50 mM Tris pH 7.4, 120 mM NaCl plus 0.1% BSA) followed by washing with ice-cold buffer (50 mM Tris pH 7.4, 120 mM NaCl). The amount of receptor-bound (and thereby membrane-bound) GTP-gamma^35S is determined by measuring the bound radioactivity, preferably by liquid scintillation spectrometry of the washed filters. Non-specific binding is determined using 10 uM GTP-gammaS and typically represents less than 5 percent of total binding. After subtraction of non-specific binding, data is expressed as percent inhibition of 1 μM histamine signal.
Neutral antagonists are those test compounds that reduce the histamine-stimulated GTP binding activity towards, but not below, baseline levels. In contrast, in the absence of added histamine, inverse agonists reduce the GTP binding activity of the receptor-containing membranes below baseline. Any test compound that elevates GTP binding activity above baseline in the absence of added histamine in this assay is defined as having agonist activity.

SMILES	inhibition at 4 µM [%]
CC1CCCCN1C1CCN(C(=O)CN2CCc3c([nH]c4ccccc34)C2)CC1 (stereo not drawn) [Compound 34, 2-[2-(2-Methyl-1,4′-bipiperidin-1′-yl)-2-oxoethyl]-2,3,4,9-tetrahydro-1H-beta-carboline]	≥ 90
C=CCN1CCN(C(=O)CN2CCc3c([nH]c4ccccc34)C2)CC1 [Compound 35, 2-[2-(4-Allylpiperazin-1-yl)-2-oxoethyl]-2,3,4,9-tetrahydro-1H-beta-carboline]	≥ 90
CC(C)N1CCCN(C(=O)CN2CCc3c([nH]c4ccccc34)C2)CC1 [Compound 36, 2-[2-(4-Isopropyl-1,4-diazepan-1-yl)-2-oxoethyl]-2,3,4,9-tetrahydro-1H-beta-carboline]	≥ 90
O=C(CN1CCc2c([nH]c3ccccc23)C1)N1CCCN(C2CCC2)CC1 [Compound 37, 2-[2-(4-Cyclobutyl-1,4-diazepan-1-yl)-2-oxoethyl]-2,3,4,9-tetrahydro-1H-beta-carboline]	≥ 90
CC1CCCC1N1CCN(C(=O)CN2CCc3c([nH]c4ccccc34)C2)CC1 (stereo not drawn) [Compound 38, 2-{2-[4-(2-Methylcyclopentyl)piperazin-l-yl]-2-oxoethyl}-2,3,4,9-tetrahydro-1H-beta-carboline]	≥ 90
O=C(CN1CCc2c([nH]c3ccccc23)C1)N1CCC(N2CCCC2)C1 (stereo not drawn) [Compound 39, 2-[2-(1,3′-Bipyrrolidin-1′-yl)-2-oxoethyl]-2,3,4,9-tetrahydro-1H-beta-carboline]	≥ 90
O=C(CN1CCc2c([nH]c3ccccc23)C1)N1CCN(C2CCOCC2)CC1 [Compound 40, 2-{2-Oxo-2-[4-(tetrahydro-2H-pyran-4-yl)piperazin-1-yl]ethyl}-2,3,4,9-tetrahydro-1H-beta-carboline]	≥ 90
O=C(CN1CCc2c([nH]c3ccccc23)C1)N1CCN(C2CCCCC2)CC1 [Compound 41, 2-[2-(4-Cyclohexylpiperazin-1-yl)-2-oxoethyl]-2,3,4,9-tetrahydro-1H-beta-carboline]	≥ 90
CCN1CCN(C(=O)CN2CCc3c([nH]c4ccccc34)C2)CC1 [Compound 42, 2-[2-(4-Ethylpiperazin-1-yl)-2-oxoethyl]-2,3,4,9-tetrahydro-1H-beta-carboline]	≥ 90
CN1CCC(N(C)C(=O)CN2CCc3c([nH]c4ccccc34)C2)CC1 [Compound 43]	≥ 90
CCCN1CCN(C(=O)CN2CCc3c([nH]c4ccccc34)C2)CC1 [Compound 44, 2-[2-(4-propylpiperazin-1-yl)-2-oxoethyl]-2,3,4,9-tetrahydro-1H-beta-carboline]	≥ 90
O=C(CN1CCc2c([nH]c3ccccc23)C1)N1CCN(C2CCCC2)CC1 [Compound 45, 2-[2-(4-Cyclopentylpiperazin-1-yl)-2-oxoethyl]-2,3,4,9-tetrahydro-1H-beta-carboline]	≥ 90
CCN(CC)C1CCN(C(=O)CN2CCc3c([nH]c4ccccc34)C2)CC1 [Compound 46, N,N-Diethyl-1-(1,3,4,9-tetrahydro-2H-beta-carbolin-2-ylacetyl)piperidin-4-amine]	≥ 90
CCCCN1CCCN(C(=O)CN2CCc3c([nH]c4ccccc34)C2)CC1 [Compound 47, 2-[2-(4-Butyl-1,4-diazepan-1-yl)-2-oxoethyl]-2,3,4,9-tetrahydro-1H-beta-carboline]	≥ 90
CCCCN1CCN(C(=O)CN2CCc3c([nH]c4ccccc34)C2)CC1 [Compound 48, 2-[2-(4-Butylpiperazin-1-yl)-2-oxoethyl]-2,3,4,9-tetrahydro-1H-beta-carboline]	≥ 90
CCN(CC)C1CCN(C(=O)CN2CCc3c([nH]c4ccccc34)C2)C1 (stereo not drawn) [Compound 49, N,N-Diethyl-1-(1,3,4,9-tetrahydro-2H-beta-carbolin-2-ylacetyl)pyrrolidin-3-amine]	≥ 90
CC(C)CN1CCN(C(=O)CN2CCc3c([nH]c4ccccc34)C2)CC1 [Compound 50, 2-[2-(4-Isobutylpiperazin-1-yl)-2-oxoethyl]-2,3,4,9-tetrahydro-1H-beta-carboline]	≥ 90
CCCN(CC1CC1)C1CCN(C(=O)CN2CCc3c([nH]c4ccccc34)C2)CC1 [Compound 51, N-(Cyclopropylmethyl)-N-propyl-1-(1,3,4,9-tetrahydro-2H-beta-carbolin-2-ylacetyl)piperidin-4-amine]	≥ 90
O=C(CN1CCc2c([nH]c3ccccc23)C1)N1CCC(N2CCCC2)CC1 [Compound 52, 2-[2-Oxo-2-(4-pyrrolidin-1-ylpiperidin-1-yl)ethyl]-2,3,4,9-tetrahydro-1H-beta-carboline]	≥ 90
O=C(CN1CCc2c([nH]c3ccccc23)C1)N1CCC(N2CCCCC2)CC1 [Compound 53, 2-[2-(1,4′-Bipiperidin-1′-yl)-2-oxoethyl]-2,3,4,9-tetrahydro-1H-beta-carboline]	≥ 90
COCCN(C(=O)CN1CCc2c([nH]c3ccccc23)C1)C1CCN(C)CC1 [Compound 54, N-(2-Methoxyethyl)-N-(1-methylpiperidin-4-yl)-2-(1,3,4,9-tetrahydro-2H-beta-carbolin-2-yl)acetamide]	≥ 90
O=C(CN1CCc2c([nH]c3ccccc23)C1)N1CCN(CCCN2CCCC2)CC1 [Compound 55, 2-{2-Oxo-2-[4-(3-pyrrolidin-1-ylpropyl)piperazin-1-yl]ethyl}-2,3,4,9-tetrahydro-1H-beta-carboline]	≥ 90
O=C(CN1CCc2c([nH]c3ccccc23)C1)N1CCN(CCN2CCCCC2)CC1 [Compound 56, 2-{2-Oxo-2-[4-(2-piperidin-1-ylethyl)piperazin-1-yl]ethyl}-2,3,4,9-tetrahydro-1H-beta-carboline]	≥ 90
O=C(CN1CCc2c([nH]c3ccccc23)C1)N1CCN(CCCN2CCCCC2)CC1 [Compound 57, 2-{2-Oxo-2-[4-(3-piperidin-1-ylpropyl)piperazin-1-yl]ethyl}-2,3,4,9-tetrahydro-1H-beta-carboline]	≥ 90
O=C(CN1CCc2c([nH]c3ccccc23)C1)N1CCN(CCN2CCCC2)CC1 [Compound 58, 2-{2-Oxo-2-[4-(2-pyrrolidin-1-ylethyl)piperazin-1-yl]ethyl}-2,3,4,9-tetrahydro-1H-beta-carboline]	≥ 90
CC(c1ccccc1)N1CCN(C(=O)CN2CCc3c([nH]c4ccccc34)C2)CC1 (stereo not drawn) [Compound 59, 2-{2-Oxo-2-[4-(1-phenylethyl)piperazin-1-yl]ethyl}-2,3,4,9-tetrahydro-1H-beta-carboline]	≥ 90
CCCN(C(=O)CN1CCc2c([nH]c3ccccc23)C1)C1CCN(C)CC1 [Compound 60, N-(1-Methylpiperidin-4-yl)-N-propyl-2-(1,3,4,9-tetrahydro-2H-beta-carbolin-2-yl)acetamide]	≥ 90
CN(C)CCCN(C(=O)CN1CCc2c([nH]c3ccccc23)C1)C1CCN(C)CC1 [Compound 61, N-[3-(Dimethylamino)propyl]-N-(1-methylpiperidin-4-yl)-2-(1,3,4,9-tetrahydro-2H-beta-carbolin-2-yl)acetamide]	≥ 90
CCN(C(=O)CN1CCc2c([nH]c3ccccc23)C1)C1CCN(C)CC1 [Compound 62, N-(1-Methylpiperidin-4-yl)-N-ethyl-2-(1,3,4,9-tetrahydro-2H-beta-carbolin-2-yl)acetamide]	≥ 90
CN(CCN1CCCC1)C(=O)CN1CCc2c([nH]c3ccccc23)C1 [Compound 63]	≥ 90
